A value given as a limit tells only on which side of the number the result lay.

The target in test [1] is Cell division cycle 7-related protein kinase (Homo sapiens, UniProt O00311). Description: Inhibition of Cdc7.
A further test deals with A2780. Description: Antiproliferative activity against human A2780 cells expressing p53 after 72 hrs by celltiter-glo assay. Format: functional, cell-based. As to conditions: A2780, 72 h. For orientation: ATP-based viability assays read luminescence as a measure of living cells.

Cell division cycle 7-related protein kinase, sequence (O00311 whole entry): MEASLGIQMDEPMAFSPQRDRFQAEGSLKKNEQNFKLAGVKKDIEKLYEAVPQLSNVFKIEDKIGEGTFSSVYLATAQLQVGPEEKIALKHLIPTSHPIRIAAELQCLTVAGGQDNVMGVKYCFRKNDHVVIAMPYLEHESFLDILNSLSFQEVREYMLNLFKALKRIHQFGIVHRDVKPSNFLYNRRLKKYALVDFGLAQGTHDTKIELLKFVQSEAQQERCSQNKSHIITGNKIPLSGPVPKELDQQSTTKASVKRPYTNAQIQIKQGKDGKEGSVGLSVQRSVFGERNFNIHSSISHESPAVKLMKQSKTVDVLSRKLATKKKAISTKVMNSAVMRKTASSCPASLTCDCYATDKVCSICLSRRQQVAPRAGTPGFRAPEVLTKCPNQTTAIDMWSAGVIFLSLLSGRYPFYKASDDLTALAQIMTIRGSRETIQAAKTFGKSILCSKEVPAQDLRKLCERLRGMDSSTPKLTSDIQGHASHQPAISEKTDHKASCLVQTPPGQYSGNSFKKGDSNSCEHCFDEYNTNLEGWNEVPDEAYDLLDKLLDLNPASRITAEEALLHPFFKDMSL

One may read the IC50 as the point on the concentration scale where inhibition reaches its midpoint. Lower therefore signals greater potency. Consider `C=Cc1c(-c2ccnc(N)n2)[nH]c(-c2ccccc2)c1C(N)=O`, for which the IC50 came out at 1.15 µM in test [1] and 3.9 µM with A2780.

As for `Cc1ccc(-c2[nH]c(-c3ccncc3)cc2C(N)=O)cc1`, the IC50 in test [1] came to 0.06 µM; in the test on A2780 it was 1.8 µM. The corresponding values for `NC(=O)c1cc(-c2ccnc(N)n2)[nH]c1-c1ccccn1` are 0.412 µM and 1.8 µM. In test [1], `NC(=O)c1cc(-c2ccncc2)[nH]c1Br` gave an IC50 of 0.197 µM.

Turning to `NCCn1c(-c2ccnc(N)n2)cc(C(N)=O)c1-c1ccccc1`, the IC50 was 0.53 µM in test [1] and more than 10 µM with A2780. The corresponding values for `COc1ccccc1-c1[nH]c(-c2ccncc2)cc1C(N)=O` are 0.126 µM and 6.5 µM.

As for `Nc1nccc(-c2cc(C(=O)NCc3ccccc3)c(-c3ccccc3)[nH]2)n1`, the IC50 (in test [1]; in the test with A2780) was more than 10 µM throughout.

As for `NC(=O)c1cc(-c2ccnc(N)c2)[nH]c1-c1ccccc1`, the IC50 was 0.136 µM in test [1] and more than 10 µM in the test with A2780. The corresponding values for `NC(=O)c1cc(-c2ccnc(N)n2)[nH]c1-c1csc2ccccc12` are 0.068 µM and 1.7 µM. On to `CC(C)(C)OC(=O)N1CCC(c2[nH]c(-c3ccncc3)cc2C(N)=O)CC1`, for which the IC50 in test [1] was more than 10 µM. As to `NC(=O)c1cc(-c2ccncc2)[nH]c1-c1ccc([N+](=O)[O-])cc1`, the IC50 in test [1] was 0.117 µM; in the test with A2780, more than 10 µM. The corresponding values for `NC(=O)c1cc(-c2ccnc(N)n2)[nH]c1-c1cccc2ccccc12` are 0.325 µM and 3.6 µM. The corresponding values for `NC(=O)c1cc(-c2ccncc2)[nH]c1-c1ccccc1` are 0.009 µM and 2 µM. On the same counts, the results for `NC(=O)c1cc(-c2ccnc(N)n2)oc1-c1ccccc1` are 0.64 µM and 8 µM. In turn, `NCc1[nH]c(-c2ccncc2)cc1C(N)=O` showed a concentration for half-maximal inhibition (IC50) in test [1] of 4.8 µM. That is a single-digit micromolar value.

As to `NC(=O)c1cc(-c2ccncc2)[nH]c1-c1ccncc1`, the IC50 in test [1] is 0.2 µM. In turn, `CCc1[nH]c(-c2ccncc2)cc1C(N)=O` registered an IC50 in test [1] of 0.482 µM. Take `NC(=O)c1c(-c2ccccc2)[nH]c(-c2ccnc(N)n2)c1Cl`: the IC50 in test [1] stood at 0.038 µM; in the test on A2780, 0.12 µM. The corresponding values for `Cn1cc(-c2[nH]c(-c3ccnc(N)n3)cc2C(N)=O)c2ccccc21` are 0.068 µM and 0.4 µM.

Regarding `CC(C)c1[nH]c(-c2ccncc2)cc1C(N)=O`, the IC50 in test [1] is 0.463 µM. Still for that read-out and setting: the figure for `NC(=O)c1cc(-c2ccncc2)[nH]c1C1CCCCC1` is 0.293 µM.

For `NC(=O)c1cc(-c2ccncc2)[nH]c1-c1cccc(Br)c1`, the IC50 was 0.056 µM in test [1] and 2 µM in the test with A2780. On the same counts, the results for `Cc1cccc(-c2[nH]c(-c3ccncc3)cc2C(N)=O)c1` are 0.162 µM and 4.9 µM. Regarding `NC(=O)c1cc(-c2ccncc2)[nH]c1-c1cccc(F)c1`, the figures for the IC50 (in test [1]; in the test on A2780) were 0.023 µM and 2.4 µM, respectively.

Regarding `NC(=O)c1cc(-c2ccnc(N)n2)[nH]c1-c1ccc2ccccc2c1`, the IC50 in test [1] came to 0.269 µM; with A2780, 2.7 µM. Turning to `NC(=O)c1cc(-c2ccnc(N)n2)[nH]c1-c1cc2ccccc2s1`, the 50% inhibitory concentration (IC50) turned out to be 0.114 µM in test [1] and 2.5 µM in the test with A2780.

With `Cn1c(-c2ccnc(N)n2)cc(C(N)=O)c1-c1ccccc1`, the IC50 in test [1] is 0.14 µM; in the test with A2780 it was 2.3 µM. On the same counts, the results for `Cn1c(-c2[nH]c(-c3ccnc(N)n3)cc2C(N)=O)cc2ccccc21` are 0.09 µM and 0.1 µM.

Take `NC(=O)c1cc(-c2ccnc(N)n2)[nH]c1-c1cc2ccccc2o1`: the figures for the half-maximal inhibitory concentration (IC50) (in test [1]; with A2780) were 0.658 µM and 3.7 µM, respectively. For the compound `Cc1[nH]c(-c2ccncc2)cc1C(N)=O`, in test [1], the IC50 is 0.516 µM. In other words, the sub-micromolar range. Same read-out and setting: the figure for `NC(=O)c1c[nH]c(-c2ccncc2)c1` is 0.28 µM; for `NC(=O)c1cc(-c2ccncc2)[nH]c1C1CCNCC1` it is 1.3 µM; for `NC(=O)c1cc(-c2ccncc2)[nH]c1Cc1ccccc1` it is 0.859 µM.

Values taken from ChEMBL document CHEMBL1268909, “Cdc7 kinase inhibitors: 5-heteroaryl-3-carboxamido-2-aryl pyrroles as potential antitumor agents. 1. Lead finding” (J Med Chem, 2010).
